Measured values published in US20230114627A1, “COMPOSITION COMPRISING A METAL ASCORBO-CAMPHORATE COMPOUND AND METHOD FOR PREVENTION AND/OR TREATMENT OF PAPILLOMAVIRUS INFECTIONS” (MGB PHARMA Inc., priority 2020, published 2023).
Like-named read-outs stand apart in the source and are kept apart here.

What was measured:
[1] = test system: Cos-7 cells; experiment: Colorimetric cell viability assay on Cos-7 cells; format: cell-based; settings: 24 hours, estimated; read-out: 50% cytotoxic concentration (CC50)
Experimental: (§1) The cytotoxicity study was conducted on three types of cells: on Vero cells, on human diploid MRC5 cells (human fibroblast and embryonic type), and on Cos-7 cells. […] The latter forms crystals with the highly metabolic living cells.
In a third series of tests, the cytotoxicity of said ascorbo-camphorate on Cos-7 cells was verified. High concentrations of said ascorbo-camphorate may be required to produce an effective formulation. Therefore, the intrinsic toxicity of concentrations of said ascorbo-camphorate up to 5,000 μg/mL was evaluated using a colorimetric cell viability assay. Cos-7 cells were exposed to serial dilutions of the stock solution of said ascorbo-camphorate for 24 hours.
The viability index, or the fraction of viable cells after microbicide treatment relative to the fraction of viable cells exposed to the control condition, was calculated. Cells treated with 0.1% PBS-azide solution were used as a positive control for toxicity. The viability index, or the fraction of viable cells after treatment with the compound “AC” relative to the fraction of viable cells exposed to the natural state, was calculated. […] The 50% cytotoxic concentration (CC50) of said ascorbic camphorate was calculated using a dose-response-inhibition analysis on GraptiPad Prism v5.04 software (from GraphPad Software).

[2] = test system: human diploid MRC5 cells; experiment: MTT cytotoxicity assay on MRC5 cells; format: cell-based
Experimental: as §1
The absorbance at 490 nm of the dissolved crystals corresponds to the number of living cells.
In a second series of tests, the cytotoxicity of said ascorbo-camphorate on MRC5 cells was tested with the solutions at dilution ratios ranging from 0 to 100 millionths.

[3] = test system: SiHa (vaginal cells); experiment: XTT cell viability (KIT Tox-2) on SiHa; format: cell-based; settings: 24 hours, 1 μM to 500 μM tested
Experimental: In this example, the cell viability as a measure of non-toxicity was assessed using KIT Tox-2 XTT Sigma Aldrich, where cell viability was measured in terms of the ability of cells to degrade a colorless compound into a colored compound (mitochondrial enzymes) using color intensity as being proportional to the cell viability. Three cell lines as models were used including HEC-1A (line of endocervical origin), SiHa (vaginal cells), and CaCo-2 (intestinal cells). […] KIT Tox-2 XTT Sigma Aldrich.

[4] = test system: VLP-16 pseudovirions of the HPV-16 virus; settings: for inhibitory concentration 50 (IC50) / IC50: estimated; for IC50: read-out: inhibitory concentration 50 (IC50)
Experimental: This experiment provides the data and analysis of an in vitro “AC” experimental treatment against the HPV-16 papillomavirus which was carried out by neutralizing the entry of viral pseudo particles (VLP-16) of the HPV-16 virus which was inoculated into Cos-7 cells, pretreated or treated contemporaneously to the inoculation of the VLP-16 with solutions of increasing concentrations of the said ascorbo-camphorate compound (AC).
In the case of the present tests in this example, pseudovirions were produced at the Université François Rabelais de Tours (France), under the direction of Professor A. Touzet. In brief, the VLP-16 virus pseudo particles or pseudovirions or VLPs were produced by transfection of purified plasmids containing the L1 and L2 structural proteins of the HPV-16 capsomers, and carrying a gene encoding the luciferase marker gene, into cell culture of the 293-cell line. VLP-16s were collected by nuclear lysis, with purification by […] gradient ultracentrifugation.
The positive control for the neutralization assay as disclosed herein used purified VLP-16 inoculum pre-incubated with purified antibodies against HPV (incubation for 1 hour of said VLP nuclear lysate in a solution of anti-HPV antibodies in DMED culture medium). These anti-HPV antibodies served as a positive control in the plaque assay for neutralization of Cos-7 cell infection by VLP-16.
Cells of the Cos-7 cell line were cultured in 96-well microplates, 5% CO2 and 98% H2O, at 37° C. Inoculation of Cos-7 cells was performed as follows: the inoculum mixture was added to the wells containing the confluent Cos-7 sheets, incubated for 72 hours at 37° C., 5% CO2 and 98% H2O, and the supernatant is washed and discarded from the mixture.
Cos-7 cells that may have internalized the luciferase-expressing VLPs were then recovered. The Cos-7 cells were then lysed; then the substrate (luciferin) of the reporter gene (luciferase) was added with dark incubation, for reading using a luminometer.
For each series, the experiments were repeated three times.
To assess pseudovirions infectivity, linear reporter gene expression and to perform titration of pseudovirions solutions, Cos-7 cells were grown (10^4 cells/well) in supplemented DMEM in 96-well plates (Thermo Fisher Scientific) in 5% CO2 at +37° C. until cell confluence was 40-50%. Cells were transduced by replacing the culture medium with fresh unsupplemented DMEM containing serial dilutions of the previously produced PsVs stock solutions and incubated at +37° C. One well containing 1 μg of the pGL4.10[luc2] vector, encoding the luciferase reporter gene, was made as a positive control and another was the cell control for background luminescence (without PsVs or reporter plasmid). After a 3 hours incubation period, 100 μL of growth medium was added to each well and the transduced Cos-7 cells were incubated for 48 h at +37° C. in 5% CO2. Then, the growth medium was removed and the transduced Cos-7 cells were washed with DPBS and incubated in the dark for 15 min in 100 μL of Pierce™ Firefly Luciferase One-Step Glow Assay (Thermo Fisher Scientific). The resulting cell lysates were harvested and transferred to white, 96-well microplates and luciferase enzyme activity was measured using the Luminoskan Ascent brand luminometer (from Thermo Fisher Scientific) after adding 50 μL of luciferin substrate to each well.
Serial dilutions of the stock solution of compound “AC” covering an appropriate concentration range were subjected to an HPV inhibition assay based on VLP-16 pseudovirions.

[5] = pseudovirions added simultaneously

Substance: zinc tetra-ascorbo-camphorate [C14]
- CC50 [1]: > 5.15 mM
- molarity of solutions tolerable by MRC5 cells (upper limit, exclusive value) ([2]; lower limit tested 5.15.10-4 μM): < 5155 µM
- percentage of living cells remaining ([2]; one-tenth dilution of 0.05155 M stock): greater than or equal to 50%
- concentrations without toxicity to epithelial cells [3]: less than or equal to 125 μM
- inhibition of VLP-16 internalization ([4]; contemporaneous addition, 1/10 dilution (515.5 μM)): Total inhibition
- inhibition of VLP-16 penetration into Cos-7 cells ([4]; contemporaneous addition, dilution 1:10^3 (51.5 μM)): 33%
- inhibitory concentration 50 (IC50) ([4]; pre-treatment of Cos-7 cells): 2.8 µg/mL
- inhibition of penetration of VLP-16 into Cos-7 cells ([4]; pretreatment, compared to untreated infected controls): 30-40%
- inhibition of VLP-16 internalization ([4]; pretreatment, dilution 1/10^2 (515.5 μM)): total inhibition
- inhibitory concentration 50 (IC50) [4, 5]: 8.1 µg/mL
- IC50 ([4]; pre-treatment of Cos-7 cells): 2.9 µM
- IC50 [4, 5]: 8.3 µM
